We go through 17 compounds from patent US8530493B2, “Indolopyridines as Eg5 kinesin modulators” (4SC AG, priority 2006, dated 2013).

Structures are written as SMILES.

The test system of assay [1] is RKO p27 or p21 induced (arrested) colon adenocarcinoma cells. Description: Alamar Blue cell viability assay, RKO p27 or p21 induced (arrested). The format is cell-based. As to conditions: Homo sapiens, RKOp27, Table B2, cells arrested by Ponasterone A, 72 hours, read-out: −log EC50 RKO p27 or p21 induced (arrested) (converted). Here is the method:
(§1) To determine the cell cycle specific mode of action, subclones of RKO colon adenocarcinoma cells (RKOp21 or RKOp27 as described by Schmidt et al. in Oncogene 19, 2423-2429; 2000) are seeded into 96 well flat bottom plates at a density of 16000 cells per well in a volume of 50 μl per well in DMEM growth medium with 10% FCS containing 10 μM Ponasterone A. 24 hours after seeding the 50 μl each of the compound dilutions in DMEM medium are added into each well of the 96-well plate. Each compound dilution is tested as triplicates. Wells containing untreated control cells are filled with 50 μl DMEM medium containing 1% DMSO. The cells are then incubated with the substances for 72 hours at 37° C. in a humidified atmosphere containing 5% carbon dioxide. To determine the viability of the cells, 10 μl of an Alamar Blue solution (Biosource) are added and the fluorescence is measured at an extinction of 544 nm and an emission of 590 nm. For the calculation of the cell viability the emission value from untreated cells is set as 100% viability and the emission rates of treated cells are set in relation to the values of untreated cells. Viabilities are expressed as % values. The Graphpad Prism program (GraphPad Software, Inc) is used for the calculation of EC50 values out of the obtained dose-response curves. Viability is compared of proliferating cells grown in the absence of the inducer Ponasterone A, versus viability of cells arrested by the expression of ectopic p27Kip1 induced by Ponasterone A.
(§2) Representative values for anti-proliferation/cytotoxicity [measured as −log EC50 (mol/l)] determined in the aforementioned assays follow from the following tables B1, B2 and B3, in which the numbers of the compounds correspond to the numbers of the examples.

Assay [2] concerns RKO p27 or p21 uninduced (proliferating) colon adenocarcinoma cells. Description: Alamar Blue cell viability assay, RKO p27 or p21 uninduced (proliferating). As to conditions: Homo sapiens, RKOp27, 72 h, Table B2, anti-proliferative/cytotoxic activity, read-out: −log EC50 RKO p27 or p21 uninduced (proliferating) (converted). The format is cell-based. Here is the method: The anti-proliferative/cytotoxic activity of the compounds described herein can be tested on subclones of RKO human colon adenocarcinoma cells (Schmidt et al., Oncogene 19, 2423-2429; 2000) using the Alamar Blue cell viability assay (described in O'Brien et al. Eur J Biochem 267, 5421-5426, 2000). The compounds are dissolved as 10 mM solutions in DMSO and subsequently diluted in semi-logarithmic steps. DMSO dilutions are further diluted 1:100 into Dulbecco's modified Eagle's medium (DMEM) containing 10% fetal calf serum to a final concentration twice as much as the final concentration in the test. RKO subclones are seeded into 96 well flat bottom plates at a density of 4000 cells per well in a volume of 50 μl per well. 24 hours after seeding the 50 μl each of the compound dilutions in DMEM medium are added into each well of the 96 well plate. Each compound dilution is tested as triplicates. Wells containing untreated control cells are filled with 50 μl DMEM medium containing 1% DMSO. The cells are then incubated with the substances for 72 hours at 37° C. in a humidified atmosphere containing 5% carbon dioxide. To determine the viability of the cells, 10 μl of an Alamar Blue solution (Biosource) are added and the fluorescence is measured at an extinction of 544 nm and an emission of 590 nm. For the calculation of the cell viability the emission value from untreated cells is set as 100% viability and the emission rates of treated cells are set in relation to the values of untreated cells. Viabilities are expressed as % values. The Graphpad Prism program is used for the calculation of EC50 values for anti-proliferative/cytotoxic activity out of the obtained dose-response curves.
as §1, §2

Consider `CCN(CCO)CCN1C(=O)N2[C@H](c3cccc(O)c3)c3[nH]c4ccc(OC)cc4c3C[C@@]2(C)C1=O` (racemic) [Example 78, (3aSR,10RS)-2-[2-[Ethyl-(2-hydroxy-ethyl)-amino]-ethyl}-10-(3-hydroxy-phenyl)-6-methoxy-3a-methyl-3a,4,9,10-tetrahydro-2,9,10a-triaza-cyclopenta[b]fluorene-1,3-dione], for which the figures for the 50% effective concentration (EC50) in assay [1] and in assay [2] were not below 3160 nM and not above 39.8 nM, respectively.

With `C[C@@]12Cc3c([nH]c4ccc(Cl)cc34)[C@@H](c3cccc(O)c3)N1C(=O)N(CCNCC1CC1)C2=O` (racemic) [Example 108, (3aSR,10RS)-6-Chloro-2-[2-(cyclopropylmethyl-amino)-ethyl]-10-(3-hydroxy-phenyl)-3a-methyl-3a,4,9,10-tetrahydro-2,9,10a-triaza-cyclopenta[b]fluorene-1,3-dione], the 50% effective concentration (EC50) in assay [1] is not below 316 nM; in assay [2] it was not above 39.8 nM.

For `C#CCNCCN1C(=O)N2[C@H](c3cccc(O)c3)c3[nH]c4ccc(OC)cc4c3C[C@@]2(C)C1=O` (racemic) [Example 85, (3aSR,10RS)-10-(3-Hydroxy-phenyl)-6-methoxy-3a-methyl-2-(2-prop-2-ynylamino-ethyl)-3a,4,9,10-tetrahydro-2,9,10a-triaza-cyclopenta[b]fluorene-1,3-dione], the values for the EC50 in assay [1] and in assay [2] were not below 3160 nM and 39.8 to 251 nM, respectively.

Consider `COc1ccc2[nH]c3c(c2c1)C[C@@]1(C)C(=O)N(CCCNC(C)C)C(=O)N1[C@@H]3c1cccc(O)c1` (racemic) [Example 67, (3aSR,10RS)-10-(3-Hydroxy-phenyl)-2-(3-isopropylamino-propyl)-6-methoxy-3a-methyl-3a,4,9,10-tetrahydro-2,9,10a-triaza-cyclopenta[b]fluorene-1,3-dione], for which the EC50 in assay [1] was not below 3160 nM; in assay [2], not above 39.8 nM.

Regarding `CCN(CC)CCCN1C(=O)N2[C@H](c3cccc(O)c3)c3[nH]c4ccc(OC)cc4c3C[C@@]2(C)C1=O` (racemic) [Example 107, (3aSR,10RS)-2-(3-Diethylamino-propyl)-10-(3-hydroxy-phenyl)-6-methoxy-3a-methyl-3a,4,9,10-tetrahydro-2,9,10a-triaza-cyclopenta[b]fluorene-1,3-dione], the EC50 in assay [1] is not below 316 nM; in assay [2] it was not above 39.8 nM.

For `COc1ccc2[nH]c3c(c2c1)C[C@@]1(C)C(=O)N(CCCN2CCCCCC2)C(=O)N1[C@@H]3c1cccc(O)c1` (racemic) [Example 113], the results for the half-maximal effective concentration (EC50) in assay [1] and in assay [2] were not below 316 nM and not above 39.8 nM, respectively.

With `C[C@@]12Cc3c([nH]c4ccc(Cl)cc34)[C@@H](c3cccc(O)c3)N1C(=O)N(CCN1CCC(F)(F)C1)C2=O` (racemic) [Example 129, (3aSR,10RS)-6-Chloro-2-[2-(3,3-difluoro-pyrrolidin-1-yl)-ethyl]-10-(3-hydroxy-phenyl)-3a-methyl-3a,4,9,10-tetrahydro-2,9,10a-triaza-cyclopenta[b]fluorene-1,3-dione], the values for the EC50 in assay [1] and in assay [2] were not below 316 nM and 39.8 to 251 nM, respectively.

Consider `C[C@@]12Cc3c([nH]c4ccc(Cl)cc34)[C@@H](c3cccc(O)c3)N1C(=O)N(CCCNC1CCC1)C2=O` (racemic) [Example 138, (3aSR,10RS)-6-Chloro-2-(3-cyclobutylamino-propyl)-10-(3-hydroxy-phenyl)-3a-methyl-3a,4,9,10-tetrahydro-2,9,10a-triaza-cyclopenta[b]fluorene-1,3-dione], for which the results for the concentration for a half-maximal effect (EC50) in assay [1] and in assay [2] were not below 3160 nM and not above 39.8 nM, respectively.

For the compound `C[C@@]12Cc3c([nH]c4ccc(Cl)cc34)[C@@H](c3cccc(O)c3)N1C(=O)N(CCCCl)C2=O` (racemic) [Example 57, (3aSR,10RS)-6-Chloro-2-(3-chloro-propyl)-10-(3-hydroxy-phenyl)-3a-methyl-3a,4,9,10-tetrahydro-2,9,10a-triaza-cyclopenta[b]fluorene-1,3-dione], the half-maximal effective concentration (EC50) in assay [1] is not below 316 nM; in assay [2], 39.8 to 251 nM.

As for `COc1ccc2[nH]c3c(c2c1)C[C@@]1(C)C(=O)N(CCCN2CCCC2)C(=O)N1[C@@H]3c1cccc(O)c1` (racemic) [Example 96, (3aSR,10RS)-10-(3-Hydroxy-phenyl)-6-methoxy-3a-methyl-2-(3-pyrrolidin-1-yl-propyl)-3a,4,9,10-tetrahydro-2,9,10a-triaza-cyclopenta[b]fluorene-1,3-dione], the EC50 in assay [1] was not below 3160 nM; in assay [2], not above 39.8 nM.

For `COc1ccc2[nH]c3c(c2c1)C[C@@]1(C)C(=O)N(CCCNCC(F)F)C(=O)N1[C@@H]3c1cccc(O)c1` (racemic) [Example 142, (3aSR,10RS)-2-[3-(2,2-Difluoro-ethylamino)-propyl]-10-(3-hydroxy-phenyl)-6-methoxy-3a-methyl-3a,4,9,10-tetrahydro-2,9,10a-triaza-cyclopenta[b]fluorene-1,3-dione], the 50% effective concentration (EC50) in assay [1] is not below 316 nM; in assay [2] it was 39.8 to 251 nM.

Take `CCN(CCCN1C(=O)N2[C@H](c3cccc(O)c3)c3[nH]c4ccc(OC)cc4c3C[C@@]2(C)C1=O)CCOC` (racemic) [Example 90, (3aSR,10RS)-2-{3-[Ethyl-(2-methoxy-ethyl)-amino]-propyl}-10-(3-hydroxy-phenyl)-6-methoxy-3a-methyl-3a,4,9,10-tetrahydro-2,9,10a-triaza-cyclopenta[b]fluorene-1,3-dione]: the results for the EC50 in assay [1] and in assay [2] were not below 3160 nM and not above 39.8 nM, respectively.

With `C=CCN(C)CCCN1C(=O)N2[C@H](c3cccc(O)c3)c3[nH]c4ccc(OC)cc4c3C[C@@]2(C)C1=O` (racemic) [Example 88, (3aSR,10RS)-2-[3-(Allyl-methyl-amino)-propyl]-10-(3-hydroxy-phenyl)-6-methoxy-3a-methyl-3a,4,9,10-tetrahydro-2,9,10a-triaza-cyclopenta[b]fluorene-1,3-dione], the half-maximal effective concentration (EC50) in assay [1] is not below 3160 nM; in assay [2] it was not above 39.8 nM.

Take `COc1ccc2[nH]c3c(c2c1)C[C@@]1(C)C(=O)N(CCCN2CCC(C)CC2)C(=O)N1[C@@H]3c1cccc(O)c1` (racemic) [Example 112, (3aSR,10RS)-10-(3-Hydroxy-phenyl)-6-methoxy-3a-methyl-2-[3-(4-methyl-piperidin-1-yl)-propyl]-3a,4,9,10-tetrahydro-2,9,10a-triaza-cyclopenta[b]fluorene-1,3-dione]: the EC50 is not below 316 nM in assay [1] and not above 39.8 nM in assay [2].

For `C[C@@]12Cc3c([nH]c4ccc(Cl)cc34)[C@@H](c3cccc(O)c3)N1C(=O)N(CCCN1CCC1)C2=O` (racemic) [Example 141, (3aSR,10RS)-2-(3-Azetidin-1-yl-propyl)-6-chloro-10-(3-hydroxy-phenyl)-3a-methyl-3a,4,9,10-tetrahydro-2,9,10a-triaza-cyclopenta[b]fluorene-1,3-dione], the EC50 is not below 3160 nM in assay [1] and not above 39.8 nM in assay [2].

On to `CNCCCN1C(=O)N2[C@H](c3cccc(O)c3)c3[nH]c4ccc(Cl)cc4c3C[C@@]2(C)C1=O` (racemic) [Example 130, (3aSR,10RS)-6-Chloro-10-(3-hydroxy-phenyl)-3a-methyl-2-(3-methylamino-propyl)-3a,4,9,10-tetrahydro-2,9,10a-triaza-cyclopenta[b]fluorene-1,3-dione], for which the EC50 in assay [1] is not below 316 nM; in assay [2], not above 39.8 nM.

With `COc1ccc2[nH]c3c(c2c1)C[C@@]1(C)C(=O)N(CCN2CC=CC2)C(=O)N1[C@@H]3c1cccc(O)c1` (racemic) [Example 119, (3aSR,10RS)-2-[2-(2,5-Dihydro-pyrrol-1-yl)-ethyl]-10-(3-hydroxy-phenyl)-6-methoxy-3a-methyl-3a,4,9,10-tetrahydro-2,9,10a-triaza-cyclopenta[b]fluorene-1,3-dione], the figures for the half-maximal effective concentration (EC50) in assay [1] and in assay [2] were not below 316 nM and not above 39.8 nM, respectively.
